Data from patent US9850283B2, “Macrocyclic inhibitors of the PD-1/PD-L1 and CD80(B7-1)/PD-L1 protein/protein interactions” (BRISTOL-MYERS SQUIBB COMPANY, priority 2013, dated 2017).
Where two headings read alike, the source gives them in different places. Positions of bridges follow the written chain, without caps; N, C: chain ends. Non-standard residues stand in square brackets, D forms with d. Residues, ends and D or L forms follow the SMILES beside them. ξ: configuration not given here. Phe(4-Cl) = N[C@@H](Cc1ccc(Cl)cc1)C(=O)O; 1Nal = N[C@@H](Cc1cccc2ccccc12)C(=O)O; 2Nal = N[C@@H](Cc1ccc2ccccc2c1)C(=O)O; NMeF = CN[C@@H](Cc1ccccc1)C(=O)O; 3Thi = N[C@@H](Cc1ccsc1)C(=O)O; NMeNle = CCCC[C@H](NC)C(=O)O; ξY = NC(Cc1ccc(O)cc1)C(=O)O; NMeA = CN[C@@H](C)C(=O)O; ξNMeA = CNC(C)C(=O)O; ξP = O=C(O)C1CCCN1; ξC = NC(CS)C(=O)O; Sar = CNCC(=O)O

Assays:
Hu PD-L1/PD-1 = Hu PD-L1/PD-1 (Homo sapiens, UniProt Q9NZQ7); experiment: Cell binding assay Hu PD-L1/PD-1 (Tables 11-13, cell line not given); format: cell-based
Experimental: The ability of the macrocyclic peptides of the present disclosure to bind to Jurkat, mouse B cell line (LK35.2), and a human lung adenocarcinoma cell line (L2987) was investigated. Jurkat-PD-1 Cell Binding Assay. Phycoerythrin (PE) was covalently linked to the Ig epitope tag of human PD-L1-Ig and fluorescently-labeled PD-L1-Ig was used for binding studies with a Jurkat cell line over-expressing human PD-1 (Jurkat-PD-1). […] Cells were washed 3× in dPBS. Cells were resuspended in 200 μl of dPBS and binding was measured by flow cytometry. LK35.2-hPD-L1 Cell Binding Assay. Phycoerythrin (PE) was covalently linked to the Ig eptitope tag of human PD-1-Ig and fluorescently-labeled PD-1-Ig was used for binding studies with a mouse B cell line (LK35.2) stably over-expressing human PD-L1 (LK35.2-hPD-L1). Briefly, […] LK35.2-hPD-L1 cells were pre-incubated with inhibitor for 15 m in a 30 μl volume of RPMI supplemented with 2% fetal calf serum. 20 μl of PE-labeled PD-1-Ig (2 nM final), diluted in RPMI supplemented with 2% fetal calf serum, was dispensed on top of cells and inhibitor and binding was allowed to take place for 1 h at room temperature. Cells were washed 3× in dPBS. Cells were resuspended in 200 μl of dPBS and binding was measured by flow cytometry. L2987 Cellomics Cell Binding Assay. Phycoerythrin (PE) was covalently linked to the Ig eptitope tag of human PD-1-Ig and fluorescently-labeled PD-1-Ig was used for binding studies with a human lung adenocarcinoma cell line (L2987) which naturally expresses PD-L1. […] The following day, inhibitors were diluted in serum-free DMEM and 25 μl was dispensed on top of cells. […] Samples were incubated for 1 h at 37° C. followed by 2 washes in dPBS and fixation for 30 m with 4% paraformaldehyde. Samples were further washed 2× in dPBS. Hoechst (final 1 μg/ml) was added to final wash to stain nuclei. Plates were processed using a Cellomics […]®.

Human PD-L1/PD-1 = molecular target: T1, Human PD-L1/PD-1 (Homo sapiens, UniProt Q9NZQ7); experiment: HTRF PD-1-Ig/PD-L1-His binding assay (human PD-L1); conditions: read-out: HTRF Human PD-L1/PD-1 Binding Assay IC50
T1 construct: made in house; host or cells: HEK293T
Outline: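 Interaction of Fc-tagged soluble PD-1 with His-tagged soluble PD-L1 is monitored by time-resolved FRET. Donor is europium cryptate anti-Ig (1 nM final) and acceptor is APC anti-His (20 nM final). Assay buffer is dPBS with 0.1% BSA and 0.05% Tween-20.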

[1] = Table 8, Compound No. 1 variant macrocyclic peptides
[2] = Table 13, Compound No. 71 series
[3] = Table 9, Compound No. 71 variant macrocyclic peptides

Chain of Hu PD-L1/PD-1 (Q9NZQ7 19-290): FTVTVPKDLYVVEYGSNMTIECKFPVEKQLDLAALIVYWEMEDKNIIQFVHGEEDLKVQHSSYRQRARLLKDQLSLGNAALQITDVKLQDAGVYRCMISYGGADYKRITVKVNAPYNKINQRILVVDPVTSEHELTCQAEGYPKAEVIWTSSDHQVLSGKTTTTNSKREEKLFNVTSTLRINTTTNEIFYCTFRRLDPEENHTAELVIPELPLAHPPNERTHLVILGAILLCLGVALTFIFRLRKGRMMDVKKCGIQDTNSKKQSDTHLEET
T1 sequence (Q9NZQ7 with tags, fused parts or gaps): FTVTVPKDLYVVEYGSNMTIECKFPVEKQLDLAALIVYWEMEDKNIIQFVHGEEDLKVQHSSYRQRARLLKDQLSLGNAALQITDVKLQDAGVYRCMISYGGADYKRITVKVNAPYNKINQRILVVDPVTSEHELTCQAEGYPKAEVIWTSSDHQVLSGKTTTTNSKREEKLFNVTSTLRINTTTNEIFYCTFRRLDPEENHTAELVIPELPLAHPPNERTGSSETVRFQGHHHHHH

Compound | IC50 (Hu PD-L1/PD-1) | IC50 (Human PD-L1/PD-1; [1]) | IC50 (Hu PD-L1/PD-1; [2]) | IC50 (Human PD-L1/PD-1; [3])
CCCC[C@H]1C(=O)N[C@@H](CCCNC(=N)N)C(=O)N[C@H](C(=O)NCC(N)=O)CSCC(=O)N[C@@H](Cc2ccccc2)C(=O)N(C)[C@@H](C)C(=O)N[C@@H](CC(N)=O)C(=O)N2CCCC2C(=O)N[C@@H](Cc2cnc[nH]2)C(=O)N[C@@H](CC(C)C)C(=O)N(C)CC(=O)N[C@@H](Cc2c[nH]c3ccccc23)C(=O)N[C@@H](CO)C(=O)N[C@@H](Cc2c[nH]c3ccccc23)C(=O)N(C)[C@@H](C)C(=O)N1C (some centres unmarked) [Compound No. 19] ({CH2CO}-F[NMeA]N[ξP]HL[Sar]WSW[NMeA][NMeNle]RCG-NH2; thioether N-14) | 134 nM | 33 nM | – | –
CCCC[C@H]1C(=O)N(C)[C@@H](CCCC)C(=O)N[C@@H](C)C(=O)N[C@H](C(=O)NCC(N)=O)CSCC(=O)N[C@@H](Cc2ccccc2)C(=O)N(C)[C@@H](C)C(=O)N[C@@H](CC(N)=O)C(=O)N2CCCC2C(=O)N[C@@H](Cc2cnc[nH]2)C(=O)N[C@@H](CC(C)C)C(=O)N(C)CC(=O)N[C@@H](Cc2c[nH]c3ccccc23)C(=O)N[C@@H](CO)C(=O)N[C@@H](Cc2c[nH]c3ccccc23)C(=O)N1C (some centres unmarked) [Compound No. 22] | 28 nM | 3 nM | – | –
CCCC[C@H]1C(=O)N(C)[C@@H](CCCC)C(=O)N[C@@H](CCCNC(=N)N)C(=O)N[C@@H](C(=O)NCC(N)=O)CSCC(=O)N[C@@H](Cc2ccc3ccccc3c2)C(=O)N(C)[C@@H](C)C(=O)N[C@@H](CC(N)=O)C(=O)N2CCC[C@H]2C(=O)N[C@@H](Cc2cnc[nH]2)C(=O)N[C@@H](CC(C)C)C(=O)N(C)CC(=O)N[C@@H](Cc2c[nH]c3ccccc23)C(=O)N[C@@H](CO)C(=O)N[C@@H](Cc2c[nH]c3ccccc23)C(=O)N1C [Compound No. 26] ({CH2CO}-[2Nal][NMeA]NPHL[Sar]WSW[NMeNle][NMeNle]R[dC]G-NH2; thioether N-14) | 13 nM | 15 nM | – | –
CCCC[C@H]1C(=O)N(C)[C@@H](CCCC)C(=O)N[C@@H](CCCNC(=N)N)C(=O)N[C@@H](C(=O)NCC(N)=O)CSCC(=O)N[C@@H](Cc2cccc3ccccc23)C(=O)N(C)[C@@H](C)C(=O)N[C@@H](CC(N)=O)C(=O)N2CCC[C@H]2C(=O)N[C@@H](Cc2cnc[nH]2)C(=O)N[C@@H](CC(C)C)C(=O)N(C)CC(=O)N[C@@H](Cc2c[nH]c3ccccc23)C(=O)N[C@@H](CO)C(=O)N[C@@H](Cc2c[nH]c3ccccc23)C(=O)N1C [Compound No. 27] ({CH2CO}-[1Nal][NMeA]NPHL[Sar]WSW[NMeNle][NMeNle]R[dC]G-NH2; thioether N-14) | 28 nM | 20 nM | – | –
CCCC[C@H]1C(=O)N(C)[C@@H](CCCC)C(=O)N[C@@H](CCCNC(=N)N)C(=O)N[C@H](C(=O)NCC(N)=O)CSCC(=O)N[C@@H](Cc2ccc(O)cc2)C(=O)N(C)[C@@H](C)C(=O)N[C@@H](CC(N)=O)C(=O)N2CCC[C@H]2C(=O)N[C@@H](Cc2cnc[nH]2)C(=O)N[C@@H](CC(C)C)C(=O)N(C)CC(=O)N[C@@H](Cc2c[nH]c3ccccc23)C(=O)N[C@@H](CO)C(=O)N[C@@H](Cc2c[nH]c3ccccc23)C(=O)N1C [Compound No. 30] | 3 nM | 5 nM | – | –
CCCC[C@H]1C(=O)N(C)[C@@H](CCCC)C(=O)N[C@@H](CCCNC(=N)N)C(=O)N[C@H](C(=O)NCC(N)=O)CSCC(=O)N[C@@H](Cc2ccc(Cl)cc2)C(=O)N(C)[C@@H](C)C(=O)N[C@@H](CC(N)=O)C(=O)N2CCC[C@H]2C(=O)N[C@@H](Cc2cnc[nH]2)C(=O)N[C@@H](CC(C)C)C(=O)N(C)CC(=O)N[C@@H](Cc2c[nH]c3ccccc23)C(=O)N[C@@H](CO)C(=O)N[C@@H](Cc2c[nH]c3ccccc23)C(=O)N1C [Compound No. 33] ({CH2CO}-[Phe(4-Cl)][NMeA]NPHL[Sar]WSW[NMeNle][NMeNle]RCG-NH2; thioether N-14) | 7 nM | 9 nM | – | –
CCCC[C@H]1C(=O)N(C)[C@@H](CCCC)C(=O)N[C@@H](CCCNC(=N)N)C(=O)NC(C(=O)NCC(N)=O)CSCC(=O)N[C@@H](Cc2ccsc2)C(=O)N(C)[C@@H](C)C(=O)N[C@@H](CC(N)=O)C(=O)N2CCC[C@H]2C(=O)N[C@@H](Cc2cnc[nH]2)C(=O)N[C@@H](CC(C)C)C(=O)N(C)CC(=O)N[C@@H](Cc2c[nH]c3ccccc23)C(=O)N[C@@H](CO)C(=O)N[C@@H](Cc2c[nH]c3ccccc23)C(=O)N1C (some centres unmarked) [Compound No. 40] ({CH2CO}-[3Thi][NMeA]NPHL[Sar]WSW[NMeNle][NMeNle]R[ξC]G-NH2; thioether N-14) | 20 nM | 9 nM | – | –
CCCC[C@H]1C(=O)N(C)[C@@H](CCCC)C(=O)N[C@@H](CCCNC(=N)N)C(=O)N[C@H](C(=O)NCC(N)=O)CSCC(=O)N[C@@H](Cc2ccccc2)C(=O)N(C)[C@@H](C)C(=O)N[C@@H](CC(N)=O)C(=O)N2CCC[C@H]2C(=O)N[C@@H](Cc2c[nH]cn2)C(=O)N[C@@H](CC(C)C)C(=O)N[C@@H](CCN)C(=O)N[C@@H](Cc2c[nH]c3ccccc23)C(=O)N[C@@H](CO)C(=O)N[C@@H](Cc2c[nH]c3ccccc23)C(=O)N1C [Compound No. 52] | 108 nM | 24 nM | – | –

Results, then the molecule that gave them:

IC50 (Hu PD-L1/PD-1) | IC50 (Human PD-L1/PD-1; [1]) | IC50 (Hu PD-L1/PD-1; [2]) | IC50 (Human PD-L1/PD-1; [3]) | Compound
47 nM | 34 nM | – | – | CCCC[C@H]1C(=O)N(C)[C@@H](CCCC)C(=O)N[C@@H](CCCNC(=N)N)C(=O)N[C@H](C(=O)NCC(N)=O)CSCC(=O)N[C@@H](Cc2ccccc2)C(=O)N(C)C(C)C(=O)N[C@@H](CC(N)=O)C(=O)N2CCC[C@H]2C(=O)N[C@@H](Cc2cnc[nH]2)C(=O)N[C@@H](CC(C)C)C(=O)N[C@@H](Cc2cnc[nH]2)C(=O)N[C@@H](Cc2c[nH]c3ccccc23)C(=O)N[C@@H](CO)C(=O)N[C@@H](Cc2c[nH]c3ccccc23)C(=O)N1C (some centres unmarked) [Compound No. 53] ({CH2CO}-F[ξNMeA]NPHLHWSW[NMeNle][NMeNle]RCG-NH2; thioether N-14)
3 nM | 4 nM | – | – | CCCC[C@H]1C(=O)N(C)[C@@H](CCCC)C(=O)N[C@@H](CCCNC(=N)N)C(=O)N[C@H](C(=O)NCC(N)=O)CSCC(=O)N[C@@H](Cc2ccccc2)C(=O)N(C)[C@@H](C)C(=O)N[C@@H](CC(N)=O)C(=O)N2CCC[C@H]2C(=O)N[C@@H](Cc2cnc[nH]2)C(=O)N[C@@H](CC(C)C)C(=O)N2CCC[C@H]2C(=O)N[C@@H](Cc2c[nH]c3ccccc23)C(=O)N[C@@H](CO)C(=O)N[C@@H](Cc2c[nH]c3ccccc23)C(=O)N1C [Compound No. 55] ({CH2CO}-F[NMeA]NPHLPWSW[NMeNle][NMeNle]RCG-NH2; thioether N-14)
> 10000 nM | 8980 nM | – | – | CCCC[C@H]1C(=O)N(C)[C@@H](CCCC)C(=O)N[C@@H](CCCNC(=N)N)C(=O)N[C@H](C(=O)NCC(N)=O)CSCC(=O)N[C@@H](Cc2ccccc2)C(=O)N(C)[C@@H](C)C(=O)N[C@@H](CC(N)=O)C(=O)N2CCC[C@H]2C(=O)N[C@@H](Cc2cnc[nH]2)C(=O)N[C@@H](CC(C)C)C(=O)N(C)CC(=O)N[C@@H](Cc2c[nH]c3ccccc23)C(=O)N[C@H](CC(N)=O)C(=O)N[C@@H](Cc2c[nH]c3ccccc23)C(=O)N1C [Compound No. 58] ({CH2CO}-F[NMeA]NPHL[Sar]W[dN]W[NMeNle][NMeNle]RCG-NH2; thioether N-14)
– | – | > 10000 nM | > 10000 nM | CCCC[C@H]1C(=O)N(C)CC(=O)N[C@@H](CC(=O)O)C(=O)N[C@@H](C(C)C)C(=O)N(C)[C@@H](Cc2ccccc2)C(=O)N[C@@H](Cc2ccc(O)cc2)C(=O)N(C)CC(=O)N[C@@H](Cc2c[nH]c3ccccc23)C(=O)NC(Cc2ccc(O)cc2)C(=O)N[C@@H](CC(C)C)C(=O)N[C@H](C(=O)NCC(N)=O)CSCC(=O)N[C@@H](Cc2ccccc2)C(=O)N[C@@H](Cc2ccccc2)C(=O)N1C (some centres unmarked) [Compound No. 74] ({CH2CO}-FF[NMeNle][Sar]DV[NMeF]Y[Sar]W[ξY]LCG-NH2; thioether N-13)
– | – | > 10000 nM | > 10000 nM | CCCC[C@@H]1NC(=O)[C@H](Cc2ccccc2)N(C)C(=O)[C@H](Cc2ccccc2)NC(=O)CSC[C@@H](C(=O)NCC(N)=O)NC(=O)[C@H](CC(C)C)NC(=O)[C@H](Cc2ccc(O)cc2)NC(=O)[C@H](Cc2c[nH]c3ccccc23)NC(=O)CN(C)C(=O)[C@H](Cc2ccc(O)cc2)NC(=O)[C@H](Cc2ccccc2)N(C)C(=O)[C@H](C(C)C)NC(=O)[C@H](CC(=O)O)NC(=O)CN(C)C1=O [Compound No. 76] (HELM PEPTIDE1{[O=C(C[*:3])[*:2]].F.[meF].[Nle].[Sar].D.V.[meF].Y.[Sar].W.Y.L.C.G.[am]}$PEPTIDE1,PEPTIDE1,1:R3-14:R3$$$V2.0)
